Key:
[1] = system: KCL-22 and T315I KCL-22 CML cell lines; experiment: Biological screening at 1 μM on the two CML cell lines; format: cell-based, human
GSK-3β = conditions: read-out: GSK-3β IC50; previously published; cited from earlier work
[2] = system: T315I mutant KCL-22 CML cells; experiment: MTS cell viability assay, imatinib-resistant T315I mutant KCL-22 CML cells; format: cell-based, human; conditions: 48 h exposure
c-Src = c-Src (Homo sapiens, UniProt P12931); experiment: Kinase assay in vitro; format: biochemical; conditions: recombinant protein, 33P-ATP
Chain of c-Src (P12931 whole entry): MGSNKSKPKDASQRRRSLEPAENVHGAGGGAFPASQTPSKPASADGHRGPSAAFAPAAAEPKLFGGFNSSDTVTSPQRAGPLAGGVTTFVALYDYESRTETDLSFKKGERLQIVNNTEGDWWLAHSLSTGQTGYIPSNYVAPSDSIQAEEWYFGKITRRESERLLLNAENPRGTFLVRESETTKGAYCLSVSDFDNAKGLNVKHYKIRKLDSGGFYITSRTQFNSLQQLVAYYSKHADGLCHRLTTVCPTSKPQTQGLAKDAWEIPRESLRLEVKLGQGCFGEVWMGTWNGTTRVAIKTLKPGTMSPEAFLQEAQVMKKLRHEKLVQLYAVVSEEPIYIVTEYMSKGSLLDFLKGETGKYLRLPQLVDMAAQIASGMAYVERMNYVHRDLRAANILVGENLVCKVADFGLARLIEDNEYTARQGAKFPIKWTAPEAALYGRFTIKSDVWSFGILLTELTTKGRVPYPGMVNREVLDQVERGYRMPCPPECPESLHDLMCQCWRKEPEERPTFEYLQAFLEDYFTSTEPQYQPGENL

SMILES	c-Src IC50 range (in words) (c-Src)	cytotoxic activity in the screening (in words) [1]	IC50 (GSK-3β)	T315I mutant KCL-22 IC50 range (in words) [2]
O=C1Nc2ccccc2/C1=C1/Nc2ccccc2C1=O [compound 1, Indirubin, reference compound]		loss of activity		
O=C1Nc2ccccc2/C1=C1/Nc2ccccc2/C1=N\O [compound 2]		loss of activity		
CN(CCO/N=C1/C(=C2/C(=O)Nc3cc(Br)ccc32)Nc2ccccc21)CC(O)CO.Cl (stereo not drawn) [compound 18]	picomolar		0.023 µM	submicromolar range
Cl.Cl.O=C1Nc2cc(Br)ccc2/C1=C1/Nc2ccccc2/C1=N\OCCN1CCN(CCOCCO)CC1 [compound 30]				submicromolar range
O=C1Nc2ccccc2/C1=C1/Nc2cc(Br)ccc2C1=O [compound 57]		inactive		
O=C1Nc2ccccc2/C1=C1/Nc2cc(Br)ccc2/C1=N\O [compound 58]		inactive		

Now from value to molecule, other results behind:

c-Src IC50 range (in words) (c-Src)	SMILES	cytotoxic activity in the screening (in words) [1]	IC50 (GSK-3β)	T315I mutant KCL-22 IC50 range (in words) [2]
picomolar	CN(CCO/N=C1/C(=C2/C(=O)Nc3cc(Br)ccc32)Nc2ccccc21)CC(O)CO (stereo not drawn) [compound 17]		0.067 µM	submicromolar range
nanomolar	O=C1Nc2cc(Br)ccc2/C1=C1/Nc2ccccc2/C1=N\OCCN1CCCC1 [compound 19]		0.026 µM	submicromolar range
nanomolar	Cl.O=C1Nc2cc(Br)ccc2/C1=C1/Nc2ccccc2/C1=N\OCCN1CCCC1 [compound 20]		0.054 µM	submicromolar range
picomolar	Cl.Cl.O=C1Nc2cc(Br)ccc2/C1=C1/Nc2ccccc2/C1=N\OCCN1CCNCC1 [compound 22]			submicromolar range
nanomolar	COCCN1CCN(CCO/N=C2/C(=C3/C(=O)Nc4cc(Br)ccc43)Nc3ccccc32)CC1 [compound 27]		0.11 µM	submicromolar range
nanomolar	COCCN1CCN(CCO/N=C2/C(=C3/C(=O)Nc4cc(Br)ccc43)Nc3ccccc32)CC1.Cl.Cl [compound 28]		0.2 µM	submicromolar range
picomolar	O=C1Nc2cc(Br)ccc2/C1=C1/Nc2ccccc2/C1=N\OCCN1CCN(CCOCCO)CC1 [compound 29]		0.014 µM	
